Data: patent EP0803251B1, “Immediate release pH-independent solid dosage form of cisapride” (JANSSEN PHARMACEUTICA N.V., priority 1996, dated 1997)
Values belong to the molecule of their own block, whether it stands above or below them.

Tests used:
clinical = settings: in vivo; for tmax: po
Description: A standard breakfast consists of four slices of bread, one slice of ham, one slice of cheese, butter, jelly and two cups of coffee or tea with if desired milk and/or sugar, was served. […] Thereafter, subjects could resume their usual diet.
The trial medication was taken with 100 ml water.
Blood samples were taken until 48 h post-dosing.
AUClast area under the plasma concentration-time curve from time 0 to the last time point (last quantifiable concentration, calculated by linear trapezoidal summation. AUC∞ area under the plasma concentration-time extrapolated to infinity t½term terminal half-life, defined as 0.693/Sz

[1] = Dissolution of salts of cisapride in artificial gastric juice; format: physicochemical
[2] = Dissolution of tablets at different pH-values, USP test <711>, USP-2 dissolution apparatus (paddle); format: physicochemical; settings: conclusion in words
Description: The dissolution of tablets comprising cisapride-(L)-tartrate having the composition and prepared as described in Example 1 was compared with tablets comprising cisapride monohydrate instead of cisapride-(L)-tartrate (the rest of the composition and the preparation being the same) at different pH-values.
The test tablet was brought in a glass container containing 900 ml of the specified buffer at a temperature of 37 °C. The stirring is performed by a paddle at a rotational speed of 50 rpm (rotations per minute). This test is s set forth in USP test <711> in a USP-2 dissolution apparatus. This latter test is described in US Pharmacopeia XXII, pp 1578-1579. a) pH = ± 1.5 (HCl : 0.1 N)

[3] = human, in vivo
Excerpt: (AUC is the abbreviation of Area Under the Curve, which is an indication of the amount of active ingredient that is present in the blood).

[4] = formulations containing cisapride-(L)-tartrate release cisapride in a racemic form; cited from earlier work

tmax (clinical; human): 2.1 ± 0.7 h
tmax (clinical; human, tmax): 1.4 ± 0.4 h
bioequivalence of the tartrate and monohydrate formulations (clinical): bioequivalent
bioequivalence with respect to the total exposure (AUC∞) (clinical): bioequivalence is demonstrated
influence of fed or fasting conditions on absorption, peak levels and total exposure (clinical): little influence
dissolution in artificial gastric juice ([1]; compared with other salts of cisapride): better dissolution
dissolution compared with cisapride monohydrate ([2]; 0.1 N HCl (pH = ± 1.5)): comparable
dissolution compared with cisapride monohydrate ([2]; pH 4.5): clearly better
dissolution compared with cisapride monohydrate ([2]; pH = 6.5): clearly superior
Molecule: COc1cc(N)c(Cl)cc1C(=O)NC1CCN(CCCOc2ccc(F)cc2)CC1OC (racemic) [cisapride-(L)-tartrate]

Molecule: COc1cc(N)c(Cl)cc1C(=O)NC1CCN(CCCOc2ccc(F)cc2)CC1OC (racemic) [reference compound]
dissolution compared with cisapride monohydrate ([1]; salt forms of cisapride): dissolve slower than the cisapride monohydrate itself

higher exposure of cisapride in comparison with the fasting conditions (clinical; human): 29%
higher peak levels of cisapride in comparison with the fasting conditions (clinical; human): 33%
tmax (clinical; human): 2.3 ± 0.6 h
tmax (clinical; human, tmax): 1.7 ± 0.5 h
bioequivalence of the tartrate and monohydrate formulations (clinical): bioequivalent
ratio of AUC in fed state over AUC in fasted state [3]: about 1.35
Molecule: COc1cc(N)c(Cl)cc1C(=O)N[C@H]1CCN(CCCOc2ccc(F)cc2)C[C@H]1OC (relative stereo) [cisapride monohydrate, cis-4-amino-5-chloro-N-[1-[3-(4-fluorophenoxy)propyl]-3-methoxy-4-piperidinyl]-2-methoxybenzamide, reference compound]

Molecule: (+)-cisapride-(L)-tartrate
dissolution rates of the diastereomeric salt forms [4]: equal dissolution rates

Molecule: (-)-cisapride-(L)-tartrate
dissolution rates of the diastereomeric salt forms [4]: equal dissolution rates
